In patent US12383495B2, “Resident articles for gram-level dosing” (Massachusetts Institute of Technology, priority 2018, dated 2025):
Values belong to the compound of their own block, whether it stands above or below them.

Legend:
[1] = In vitro drug release from drug-vinylpolysiloxane pills/articles in simulated gastric fluid; assay type: physicochemical; conditions: for in vitro release from drug-VPS pill: SGF, 37° C., up to 28 days
Experimental: Articles with a series of 30 pills were made so that there was 1 gram of doxycycline hyclate in 2 grams of vinylpolysiloxane. Pills were coated with either cellulose acetate butyrate (CAB) or with Eudragit RS PO. A control with no coatings was also made. The articles were immersed in simulated gastric fluid, and the cumulative release of doxycycline hyclate was measured for more than 26 days. […] Thickness of coatings was tuned by increasing the spray volume. […] Individual pills made of drug-VPS for doxycycline hyclate, isoniazid, ethambutol, pyrazinamide, moxifloxacin were used to evaluate long-term release kinetics in SGF. […] Drug concentrations were then analyzed using a High-Performance Liquid Chromatography (HPLC). […] An Agilent 1260 Infinity II HPLC system (Agilent Technologies, Inc.) equipped with a Model 1260 quaternary pump, Model 1260 High Performance autosampler, Model 1260 thermostat, Model 1260 Infinity Thermostatted Column Compartment control module, and Model 1260 diode array detector was utilized. Data processing and analysis was performed using OpenLab CDS ChemStation (Agilent Technologies, Inc.). All solvents used were purchased from Sigma-Aldrich Corporation. For doxycycline hyclate, chromatographic isocratic separation was carried out on an Agilent 4.6×50 mm AdvanceBio RP-mAb SB-C8 analytical column with 3.5 μm particles, maintained at 55° C. The optimized mobile phase consisted of 20 mM dipotassium phosphate buffer and acetonitrile (pH 6 adjusted with triethylamine) [60:40 (v/v)] at a flow rate of 0.85 mL/min over a 4 min run time. The injection volume was 5 μl, and the selected ultraviolet (UV) detection wavelength was 293 nm.

[2] = In vitro drug release from drug-VPS pills/devices in water; assay type: physicochemical; conditions: 37° C.
Experimental: Three intact rifampicin devices were fabricated by loading 2 grams of drug into VPS pills. The devices were incubated in 500 mL of nanopure water for up to 26 days in a shaking incubator at 37° C. and 200 rpm, with media exchange at specified time intervals. […] The drug concentrations samples were then measured on an Infinite M200Pro (Tecan) reader (absorbance, 475 nm).

[3] = pig, in vivo

in vitro release from drug-VPS pill [1]: able to release
Compound: CC[C@@H](CO)NCCN[C@@H](CC)CO [ethambutol]

in vitro release from drug-VPS pill/device [2]: able to release
Compound: NNC(=O)c1ccncc1 [isoniazid]

in vitro release from drug-VPS pill [1]: able to release
Compound: NC(=O)c1cnccn1 [pyrazinamide]

Compound: CO[C@H]1/C=C/O[C@@]2(C)Oc3c(C)c(O)c4c(O)c(c(/C=N/N5CCN(C)CC5)c(O)c4c3C2=O)NC(=O)/C(C)=C\C=C\[C@H](C)[C@H](O)[C@@H](C)[C@@H](O)[C@@H](C)[C@H](OC(C)=O)[C@@H]1C [rifampicin]
duration of detectable serum concentrations [3]: detectable serum concentrations for a week

rate of release ([1]; PEG 3350 in matrix, thicker coating of Eudragit NM 30D): slower rate of release
duration of drug release (cumulative release) ([1]; articles of 30 pills, 1 gram drug in 2 grams vinylpolysiloxane, CAB-coated, Eudragit RS PO-coated or uncoated, simulated gastric fluid): more than 26 days
effect of excipient on rate of release ([1]; polyethylene glycol (PEG) 3350 added to drug/siloxane matrix): increase the rate of release
absorption [3]: absorbed rapidly
duration of detectable drug in serum [3]: at least 28 days
duration of sustained drug release (non-zero concentrations in the blood) [3]: at least 7 days
Compound: doxycycline hyclate
burst release ([1]; PEG 3350 in matrix, pills coated with Eudragit RS PO or Eudragit NM 30D): prevented the burst release in the first day
release kinetic profile ([1]; VPS pills coated with Eudragit RS 100, SGF): linear kinetic profile with limited burst release
burst release ([1]; article of 30 pills coated with Eudragit RS PO, simulated gastric fluid, vs uncoated control): prevented the burst release in the first couple days
burst release ([1]; article of 30 pills coated with cellulose acetate butyrate (CAB), simulated gastric fluid, vs uncoated control): prevented the burst release in the first couple days
burst release and release rate ([1]; multi-matrix pill (concentric layers of different drug/matrix concentration)): reducing the burst release and release rate
burst release and release rate ([1]; pills coated with PDMS of different viscosities (750 cst and 25 cst)): blunted the burst release and slowed down the release rate
